Tested on: Friedreich ataxia patient-derived human dermal fibroblasts
Assay: Cell viability evaluation test using human dermal fibroblasts derived from a Friedreich ataxia patient (BSO stress)
Type: cell-based
Conditions: Fibroblast, rescue of cell viability, 30 μM BSO, 48 hours, Calcein-AM fluorescence, no BSO = 100%, BSO only = 0%
Protocol: Cell Viability Evaluation Test Using Human Dermal Fibroblasts Derived from a Friedreich Ataxia Patient
Compounds described herein were tested for their ability to rescue Friedreich ataxia patient-derived dermal fibroblasts stressed by the addition of L-buthionine-(S,R)-sulfoximine (BSO).
A MEMα medium and a Medium 199 medium were obtained from Thermo Scientific, and fetal bovine serum was obtained from DS Pharma. Basic fibroblast growth factor (b-FGF) was purchased from Funakoshi Co., Ltd. and epidermal growth factor (EGF) was purchased from PeproTech Inc. L-Buthionine-(S,R)-sulfoximine and bovine pancreas-derived insulin were purchased from Sigma. Calcein-AM was purchased from DOJINDO. An assay medium is a medium of 64% MEMα medium and 25% Medium 199 medium, and contains 10% fetal bovine serum, EGF whose final concentration is 10 ng/ml, 10 ng/ml of bFGF, and 10 μg/mL insulin. Cells were purchased from Coriell Institute.
A test compound was dissolved in DMSO to make a 1 mM or 10 mM stock solution. From this stock solution, serially diluted solutions were further prepared using DMSO and used in an assay.
Friedreich ataxia patient-derived human dermal fibroblasts were suspended in an assay medium, seeded into a 384-well plate at 650 cells/well/20 μl, and incubated at 37° C. in a 5% carbon dioxide incubator overnight. A test compound solution prepared in an assay medium from the serially diluted solution (DMSO) at 5 times higher than the final concentration was added in 10 μL per well of the cell-seeded plate. Then, 10 μL of 150 μM BSO solution was added. The amount of a reaction solution was adjusted to be finally 50 μL, and the final BSO concentration was made at 30 μM. The plate was incubated at 37° C. in 5% CO2 for 48 hours, and then media were removed from all wells, and 20 μl of a Calcein-AM solution, which had been 550-fold diluted by PBS, was added to each well. The plate was incubated at 37° C. for 20 to 30 minutes, and then fluorescence (485 nm/525 nm of excitation/radiation wavelength) was measured by a fluorescence plate reader.
The degree of the viability of fibroblasts that were not treated with BSO was regarded as 100%, the degree of the viability of cells that were treated with BSO only (without a compound) was regarded as 0%, and the viability of cells that were treated with a compound was calculated.

SMILES	EC50 [nM]
CN(C)C(=O)c1cccc(C2=C3N=C(N(C)C)N=C3c3ccccc3C2=O)c1 [Example 41]	12.9
Cc1ncccc1C1=C2N=C(N(C)C)N=C2c2ccccc2C1=O [Example 34]	7
CN(C)C1=NC2=C(c3ccc4c(c3)OCCCO4)C(=O)c3ccccc3C2=N1 [Example 79]	39.1
COc1ccc(C2=C3N=C(N(C)C)N=C3c3ccccc3C2=O)c(Cl)c1 [Example 82]	16.5
Cc1cc(N2CCN(C)CC2)ccc1C1=C2N=C(N(C)C)N=C2c2ccccc2C1=O [Example 62]	5.5
Cc1ccncc1C1=C2N=C(N(C)C)N=C2c2ccccc2C1=O [Example 32]	6
CC(=O)Nc1cccc(C2=C3N=C(N(C)C)N=C3c3ccccc3C2=O)c1 [Example 59]	4
CN(C)C1=NC2=C(c3ccccc3C#N)C(=O)c3ccccc3C2=N1 [Example 71, 2-[(2-dimethylamino)-5-oxo-5H-naphth[1,2-d]imidazol-4-yl]benzonitrile]	15
Cc1nn(C)cc1C1=C2N=C(N(C)C)N=C2c2ccccc2C1=O [Example 75]	12.1
Cc1c(C2=C3N=C(N(C)C)N=C3c3ccccc3C2=O)cnn1-c1ccccc1 [Example 76]	20.3
COCc1cccc(C2=C3N=C(N(C)C)N=C3c3ccccc3C2=O)c1 [Example 43]	20.1
CN(C)C1=NC2=C(c3ccccc3C(F)(F)F)C(=O)c3ccccc3C2=N1 [Example 20]	< 3
COc1ccc(C2=C3N=C(N(C)C)N=C3c3ccccc3C2=O)cn1 [Example 3]	< 20
CN(C)C1=NC2=C(c3ccccc3N3CCOCC3)C(=O)c3ccccc3C2=N1 [Example 11]	6.4
CCN(CC)C1=NC2=C(c3cccc(OC)c3F)C(=O)c3ccccc3C2=N1 [Example 93]	29.1
Cc1ccc(C2=C3N=C(N(C)C)N=C3c3ccccc3C2=O)cc1 [Example 2]	17
COc1ccccc1C1=C2N=C(N(C)C)N=C2c2ccccc2C1=O [Example 10]	5.1
Cc1ccccc1C1=C2N=C(N(C)C)N=C2c2ccccc2C1=O [Example 4]	3.7
CC(C)N1CCN(c2ccc(C3=C4N=C(N(C)C)N=C4c4ccccc4C3=O)cc2)CC1 [Example 74]	< 3
Cc1noc(C)c1C1=C2N=C(N3CCOCC3)N=C2c2ccccc2C1=O [Example 47]	4.9

SMILES	EC50 [nM]
CN(C)C1=NC2=C(c3ccccc3N3CCCC3)C(=O)c3ccccc3C2=N1 [Example 13]	5.4
COc1cccc(C2=C3N=C(N(C)C)N=C3c3ccccc3C2=O)c1C [Example 87]	17.1
CCOc1ccc(C2=C3N=C(N(C)C)N=C3c3ccccc3C2=O)c(C)c1 [Example 63]	18.4
CN(C)C1=NC2=C(c3ccc(N(C)C)cc3)C(=O)c3ccccc3C2=N1 [Example 72]	20 to 100
Cc1cc(C(F)(F)F)ccc1C1=C2N=C(N(C)C)N=C2c2ccccc2C1=O [Example 23]	5.9
CN(C)C1=NC2=C(c3nn(C)c4ccccc34)C(=O)c3ccccc3C2=N1 [Example 42]	5.1
CN(C)C1=NC2=C(c3ccc4c(c3)OCCN4C)C(=O)c3ccccc3C2=N1 [Example 77]	17
COc1ccc(C2=C3N=C(N(C)C)N=C3c3ccccc3C2=O)c(F)c1 [Example 8]	10
COc1ccc(F)c(C2=C3N=C(N(C)C)N=C3c3ccccc3C2=O)c1 [Example 90]	14
CN(C)C1=NC2=C(c3ccccc3F)C(=O)c3ccccc3C2=N1 [Example 5]	14
CN1CCN(c2ccc(C3=C4N=C(N(C)C)N=C4c4ccccc4C3=O)cc2)CC1 [Example 80]	10
CN(C)C1=NC2=C(c3ccccc3Cl)C(=O)c3ccccc3C2=N1 [Example 33]	16
COc1ccc(C2=C3N=C(N(C)C)N=C3c3ccccc3C2=O)c(C(F)(F)F)c1 [Example 31]	15
COc1ccc(C2=C3N=C(N(C)C)N=C3c3ccccc3C2=O)cc1 [Example 1, 2-(Dimethylamino)-4-(4-methoxyphenyl)-5H-naphth[1,2-d]imidazol-5-one]	20 to 100
CCN(CC)C(=O)c1ccccc1C1=C2N=C(N(CC)CC)N=C2c2ccccc2C1=O [Example 68]	40.5
Cc1noc(C)c1C1=C2N=C(N(C)C)N=C2c2ccccc2C1=O [Example 39]	6.1
Cc1nn(C)c(C)c1C1=C2N=C(N(C)C)N=C2c2ccccc2C1=O [Example 35]	2.5
CCN(CC)C1=NC2=C(c3cccc4cn[nH]c34)C(=O)c3ccccc3C2=N1 [Example 51]	11.8
CN(C)C1=NC2=C(c3cccc4cccnc34)C(=O)c3ccccc3C2=N1 [Example 14]	41
CN(C)C1=NC2=C(c3ccc(N4CCOCC4)cc3)C(=O)c3ccccc3C2=N1 [Example 40]	11.6

SMILES	EC50 [nM]
COc1ccc(C2=C3N=C(N(C)C)N=C3c3ccccc3C2=O)c(C)c1 [Example 16]	9.1
COc1cccc(F)c1C1=C2N=C(N(C)C)N=C2c2ccccc2C1=O [Example 12]	6.4
COc1cccc(C2=C3N=C(N(C)C)N=C3c3ccccc3C2=O)c1Cl [Example 94]	22.6
CN(C)C1=NC2=C(c3ccccc3N(C)C)C(=O)c3ccccc3C2=N1 [Example 17]	8.5
CN(C)C1=NC2=C(c3cnn(C)c3)C(=O)c3ccccc3C2=N1 [Example 38]	18.8
Cc1nc(-c2ccccc2)sc1C1=C2N=C(N(C)C)N=C2c2ccccc2C1=O [Example 78]	> 100
COc1ccc(C)c(C2=C3N=C(N(C)C)N=C3c3ccccc3C2=O)c1 [Example 83]	18.3
CCN(CC)C1=NC2=C(c3cccc(OC)c3C)C(=O)c3ccccc3C2=N1 [Example 88]	17.1
CN(C)C1=NC2=C(c3ccc4cnn(C)c4c3)C(=O)c3ccccc3C2=N1 [Example 56]	14.5
COc1cccc(C2=C3N=C(N(C)C)N=C3c3ccccc3C2=O)c1F [Example 92]	30.2
COc1ccc(Cl)c(C2=C3N=C(N(C)C)N=C3c3ccccc3C2=O)c1 [Example 86]	14.9
CC(=O)c1ccc(C2=C3N=C(N(C)C)N=C3c3ccccc3C2=O)c(C)c1 [Example 89]	14.3
Cc1cc(F)ccc1C1=C2N=C(N(C)C)N=C2c2ccccc2C1=O [Example 21]	7.9
Cc1cnccc1C1=C2N=C(N(C)C)N=C2c2ccccc2C1=O [Example 28]	4.8
Cc1cc(C#N)ccc1C1=C2N=C(N(C)C)N=C2c2ccccc2C1=O [Example 36]	9.5
Cc1ccc(C2=C3N=C(N(C)C)N=C3c3ccccc3C2=O)c(C)c1 [Example 44]	17
CCN(CC)C1=NC2=C(c3c(C)noc3C)C(=O)c3ccccc3C2=N1 [Example 46]	14.9
CN(C)C1=NC2=C(c3ccccc3N3CCNCC3)C(=O)c3ccccc3C2=N1 [Example 73]	7.2
Cc1cc(OC(F)(F)F)ccc1C1=C2N=C(N(C)C)N=C2c2ccccc2C1=O [Example 26]	7.2
Cc1cccc(C2=C3N=C(N(C)C)N=C3c3ccccc3C2=O)c1 [Example 15]	6

From patent US12281083B2, “2-substituted amino-naphth (1,2-d) imidazol-5-one compounds of pharmaceutically acceptable salts thereof” (PTC Therapeutics, Inc., priority 2016, dated 2025)
